This is an account of results in paper PMC3197222 (Journal of the American Chemical Society, 2009).

In test [1] the test system is DNase. Kind of test: Phage-based ELISA of phage-displayed DNase ligands. Format: binding. The following applies: for binding to DNase, unwrapped phage-displayed ligand: absence of 1-ext wrapper, versus M13-KO7 phage; for binding affinity and specificity for DNase, phage-displayed: phage-based ELISA (Figure 5); for binding to DNase, wrapped phage-displayed ligand: wrapped with 1-ext (2.5 µM), versus M13-KO7 phage control. Background: In an ELISA, binding on a coated surface is turned into a signal by an enzyme label.

Test [2] deals with DNase. Conditions: selected with Lys18-wrapped phage library; ref [15]; cited from earlier work.
Test [3] relates to DNase. The test can be described thus: SPR imaging of phage-displayed DNase-1 adsorption. Format: binding. The following applies: phage-displayed DNase-1, 2.5 nM phage wrapped in 2.5 µM polymer 1 in PBS (Figure S2).

“Also recorded” adds a separate entry of the source.

In the case of EEWYCLRQGTFETLFF [DNase-2], in test [1], the “binding to DNase, unwrapped phage-displayed ligand” value is on record as “stronger binding to DNase than the negative control M13-KO7 phage”; the “binding affinity and specificity for DNase, phage-displayed” value is “moderate to high affinity binding and specificity for DNase”; the “binding to DNase, wrapped phage-displayed ligand” value is given as “bound with higher affinity to DNase than the M13-KO7 phage control, with DNase-2 having much greater apparent affinity; also recorded: strong binding to DNase was retained”.
On to EEWYCLRQGTFETLYCFW [DNase-L], for which the “DNase ligand (previous report)” value in test [2] is reported as “DNase ligand”.
Take RWCLSELSG [DNase-1]: in test [1], the “binding to DNase, unwrapped phage-displayed ligand” value is on record as “stronger binding to DNase than the negative control M13-KO7 phage”; the “binding affinity and specificity for DNase, phage-displayed” value is “moderate to high affinity binding and specificity for DNase”; the “binding to DNase, wrapped phage-displayed ligand” value was “bound with higher affinity to DNase than the M13-KO7 phage control”. Also, the “SPR imaging binding to DNase” value in test [3] is “binds well to the target DNase”.
